The test system of one test is Heliothis virescens. The test can be described thus: Antilepidopteran activity against tobacco budworm eggs assessed as minimum emergent larvicide concentration after 6 to 7 days. Type of test: functional.
The next test relates to Spodoptera exigua. The test can be described thus: Antilepidopteran activity against beet armyworm eggs assessed as minimum emergent larvicide concentration after 6 to 7 days. Type of test: functional.

Turning to `CC[C@H]1CCC[C@H](O[C@H]2CC[C@H](N(C)C)[C@@H](C)O2)[C@@H](C)C(=O)C2=C[C@@H]3[C@@H](C=C[C@@H]4C[C@@H](O[C@@H]5O[C@@H](C)[C@H](OC)[C@@H](OC)[C@H]5OC)C[C@@H]34)[C@@H]2CC(=O)O1` [SPINOSYN A], the Activity stood at 0.4 ppm in the test with Heliothis virescens and 3 ppm with Spodoptera exigua.

As to `C[C@@H]1C(=O)C[C@@H](O)CC/C=C/C=C\CC[C@H](C)OC(=O)[C@@H]2O[B-]34O[C@@H](C(=O)O[C@@H](C)CC/C=C\C=C\CC[C@H](O)CC(=O)[C@@H](C)[C@@H]5CC[C@](C)(O)[C@]2(O5)O3)[C@@]2(O[C@H]1CC[C@]2(C)O)O4` [TARTROLON C], the Activity in the test with Heliothis virescens and in the test on Spodoptera exigua was 125 ppm throughout.

For the origin of these results see ChEMBL document CHEMBL1158895, “Tartrolone C: a novel insecticidal macrodiolide produced by Streptomyces sp. CP1130” (2003).
